In PubChem BioAssay (NCI):
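The concentration for 50% growth inhibition is given as GI50. The concentration for full growth arrest is given as TGI.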

Experiments:
Test in all cases: growth of human tumour cells (NCI), 384-well format
786-0 renal = tested on: 786-0 renal
A498 renal = tested on: A498 renal
A549 NSCLC = tested on: A549 NSCLC
ACHN renal = tested on: ACHN renal
BT-549 breast = tested on: BT-549 breast
CAKI-1 renal = tested on: CAKI-1 renal
CCRF-CEM leukemia = tested on: CCRF-CEM leukemia
COLO 205 colon = tested on: COLO 205 colon
DU-145 prostate = tested on: DU-145 prostate
HCC-2998 colon = tested on: HCC-2998 colon
HCT-116 colon = tested on: HCT-116 colon
HCT-15 colon = tested on: HCT-15 colon
HL-60(TB) leukemia = tested on: HL-60(TB) leukemia
HOP-62 NSCLC = tested on: HOP-62 NSCLC
HOP-92 NSCLC = tested on: HOP-92 NSCLC
HT29 colon = tested on: HT29 colon
IGROV1 ovarian = tested on: IGROV1 ovarian
K-562 leukemia = tested on: K-562 leukemia
KM12 colon = tested on: KM12 colon
LOX IMVI melanoma = tested on: LOX IMVI melanoma
M14 melanoma = tested on: M14 melanoma
MALME-3M melanoma = tested on: MALME-3M melanoma
MCF7 breast = tested on: MCF7 breast
MDA-MB-231 breast = tested on: MDA-MB-231 breast
MDA-MB-435 melanoma = tested on: MDA-MB-435 melanoma
MDA-MB-468 breast = tested on: MDA-MB-468 breast
MOLT-4 leukemia = tested on: MOLT-4 leukemia
NCI-H226 lung = tested on: NCI-H226 lung

With `C=C(F)C(=O)N1CCN(c2nc(OC[C@@H]3CCCN3C)nc3c2CCN(c2cccc4cccc(Cl)c24)C3)C[C@@H]1CC#N` the GI50 ([…]-0 renal) was 0.509 µM, the TGI (786-0 renal) was 1.78 µM and the GI50 (A498 renal) was 0.471 µM. The TGI (A498 renal) was 1.59 µM, the GI50 (A549 NSCLC) was 0.561 µM and the TGI (A549 NSCLC) was 1.84 µM. The GI50 (ACHN renal) was 0.992 µM, the TGI (ACHN renal) was 2.16 µM and the GI50 (BT-549 breast) was 1.21 µM. For the same compound, the TGI (BT-549 breast) was 2.45 µM, the GI50 (CAKI-1 renal) was 0.499 µM and the TGI (CAKI-1 renal) was 1.69 µM. For the same compound, the GI50 (CCRF-CEM leukemia) was 0.351 µM, the TGI (CCRF-CEM leukemia) was 1.34 µM and the GI50 (COLO 205 colon) was 0.564 µM. The TGI (COLO 205 colon) was 1.74 µM, the GI50 (DU-145 prostate) was 1.21 µM and the TGI (DU-145 prostate) was 2.48 µM. For the same compound, the GI50 (HCC-2998 colon) was 1.08 µM, the TGI (HCC-2998 colon) was 2.28 µM and the GI50 (HCT-116 colon) was 0.326 µM. It also gave a TGI (HCT-116 colon) of 1.35 µM, a GI50 (HCT-15 colon) of 0.568 µM and a TGI (HCT-15 colon) of 1.71 µM. The GI50 (HL-60(TB) leukemia) was 0.637 µM, the TGI (HL-60(TB) leukemia) was 1.82 µM and the GI50 (HOP-62 NSCLC) was less than 0.01 µM. The TGI (HOP-62 NSCLC) was 1.39 µM, the GI50 (HOP-92 NSCLC) was 0.341 µM and the TGI (HOP-92 NSCLC) was 0.931 µM. The GI50 (HT29 colon) was 0.652 µM, the TGI (HT29 colon) was 1.93 µM and the GI50 (IGROV1 ovarian) was 1.29 µM. The TGI (IGROV1 ovarian) was 2.61 µM, the GI50 (K-562 leukemia) was 0.253 µM and the TGI (K-562 leukemia) was 1.32 µM. It also gave a GI50 (KM12 colon) of 0.561 µM, a TGI (KM12 colon) of 1.75 µM and a GI50 (LOX IMVI melanoma) of 1.1 µM. For the same compound, the TGI (LOX IMVI melanoma) was 2.31 µM, the GI50 (M14 melanoma) was 0.692 µM and the TGI (M14 melanoma) was 1.92 µM. The GI50 (MALME-3M melanoma) was 1.33 µM, the TGI (MALME-3M melanoma) was 2.61 µM and the GI50 (MCF7 breast) was 1.19 µM. For the same compound, the TGI (MCF7 breast) was 2.43 µM, the GI50 (MDA-MB-231 breast) was 0.417 µM and the TGI (MDA-MB-231 breast) was 1.42 µM. The GI50 (MDA-MB-435 melanoma) was 1.27 µM, the TGI (MDA-MB-435 melanoma) was 2.55 µM and the GI50 (MDA-MB-468 breast) was 0.275 µM. The TGI (MDA-MB-468 breast) was 1.11 µM, the GI50 (MOLT-4 leukemia) was 0.182 µM and the TGI (MOLT-4 leukemia) was 0.384 µM. It also gave a GI50 (NCI-H226 lung) of 0.915 µM and a TGI (NCI-H226 lung) of 2.14 µM.
